The values below are quoted from earlier work in patent US20080314115A1, “Compliance Apparatus” (Zenics Limited, priority 2005, published 2008).

For this data set the following is noted: after disulfiram dose.

Structures are written as SMILES.

With `S=C=S` [carbon disulphide], the breath elimination half-life is 13.3 h.
